Assay results from PubChem BioAssay (NCI).
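Dose response: 5 concentrations. Exposure: 48 h. Format: 96-well plates. Endpoint: linear interpolation; highest concentration if not reached. At the TGI there is no net growth.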

How the values were obtained:
Test in all cases: NCI tumour cell line growth inhibition, 48 h
SF-295 CNS = test system: SF-295 CNS
HCC-2998 colon = test system: HCC-2998 colon
DMS 114 small cell lung = test system: DMS 114 small cell lung
U251 CNS = test system: U251 CNS
P388/ADR leukemia = test system: P388/ADR leukemia
SF-268 CNS = test system: SF-268 CNS
IGROV1 ovarian = test system: IGROV1 ovarian
DMS 273 small cell lung = test system: DMS 273 small cell lung
HOP-62 NSCLC = test system: HOP-62 NSCLC
UO-31 renal = test system: UO-31 renal
SF-539 CNS = test system: SF-539 CNS
RXF 393 renal = test system: RXF 393 renal
SK-MEL-28 melanoma = test system: SK-MEL-28 melanoma
OVCAR-5 ovarian = test system: OVCAR-5 ovarian
XF 498 CNS = test system: XF 498 CNS
HOP-92 NSCLC = test system: HOP-92 NSCLC
MCF7 breast = test system: MCF7 breast
MALME-3M melanoma = test system: MALME-3M melanoma
OVCAR-4 ovarian = test system: OVCAR-4 ovarian
K-562 leukemia = test system: K-562 leukemia
M19-MEL melanoma = test system: M19-MEL melanoma
SK-MEL-5 melanoma = test system: SK-MEL-5 melanoma
OVCAR-3 ovarian = test system: OVCAR-3 ovarian
CAKI-1 renal = test system: CAKI-1 renal
SNB-19 CNS = test system: SNB-19 CNS
KM20L2 colon = test system: KM20L2 colon
NCI-H226 lung = test system: NCI-H226 lung
SW-620 colon = test system: SW-620 colon
LOX IMVI melanoma = test system: LOX IMVI melanoma
HL-60(TB) leukemia = test system: HL-60(TB) leukemia
NCI-H460 lung = test system: NCI-H460 lung
SNB-78 CNS = test system: SNB-78 CNS
NCI/ADR-RES ovarian = test system: NCI/ADR-RES ovarian
NCI-H522 lung = test system: NCI-H522 lung
SK-OV-3 ovarian = test system: SK-OV-3 ovarian
HOP-18 NSCLC = test system: HOP-18 NSCLC
EKVX NSCLC = test system: EKVX NSCLC
COLO 205 colon = test system: COLO 205 colon
DLD-1 colon = test system: DLD-1 colon
HCT-116 colon = test system: HCT-116 colon
SN12K1 renal = test system: SN12K1 renal
MOLT-4 leukemia = test system: MOLT-4 leukemia
RPMI-8226 leukemia = test system: RPMI-8226 leukemia
NCI-H23 lung = test system: NCI-H23 lung
SK-MEL-2 melanoma = test system: SK-MEL-2 melanoma
HT29 colon = test system: HT29 colon
KM12 colon = test system: KM12 colon
UACC-62 melanoma = test system: UACC-62 melanoma
P388 leukemia = test system: P388 leukemia
HCT-15 colon = test system: HCT-15 colon
SN12C renal = test system: SN12C renal
OVCAR-8 ovarian = test system: OVCAR-8 ovarian
CCRF-CEM leukemia = test system: CCRF-CEM leukemia
SNB-75 CNS = test system: SNB-75 CNS
UACC-257 melanoma = test system: UACC-257 melanoma
A549 NSCLC = test system: A549 NSCLC

Measured: TGI

NC1(C(=O)O)CCCC1
> 370 µM: SF-268 CNS
6.25 µM: XF 498 CNS
> 625 µM: SF-295 CNS | HCC-2998 colon | DMS 114 small cell lung | U251 CNS | P388/ADR leukemia | IGROV1 ovarian | DMS 273 small cell lung | HOP-62 NSCLC | UO-31 renal | SF-539 CNS | RXF 393 renal | SK-MEL-28 melanoma | OVCAR-5 ovarian | HOP-92 NSCLC | MCF7 breast | MALME-3M melanoma | OVCAR-4 ovarian | K-562 leukemia | M19-MEL melanoma | SK-MEL-5 melanoma | CAKI-1 renal | KM20L2 colon | NCI-H226 lung | SW-620 colon | LOX IMVI melanoma | HL-60(TB) leukemia | NCI-H460 lung | NCI/ADR-RES ovarian | NCI-H522 lung | SK-OV-3 ovarian | HOP-18 NSCLC | EKVX NSCLC | COLO 205 colon | DLD-1 colon | HCT-116 colon | SN12K1 renal | MOLT-4 leukemia | RPMI-8226 leukemia | NCI-H23 lung | SK-MEL-2 melanoma | HT29 colon | KM12 colon | UACC-62 melanoma | P388 leukemia | HCT-15 colon | SN12C renal | OVCAR-8 ovarian | CCRF-CEM leukemia | SNB-75 CNS | UACC-257 melanoma | A549 NSCLC
> 62.5 µM: OVCAR-3 ovarian
> 444 µM: SNB-78 CNS
> 99.1 µM: SNB-19 CNS
